Here are results for eleven molecules from patent publication US9790209B2, “Kinase inhibitors” (Respivert Limited, priority 2012, dated 2017).

One may read the IC50 as the concentration needed to halve the response being measured.

The subject of test [1] is PBMCs. Briefly: LPS-induced TNFα/IL-8 release in PBMC cells. The test is classed as cell-based. Conditions: Homo sapiens, LPS-stimulated PBMCs, IL-8, read-out: IC50 Values for Inhibition of Cytokine Release PBMCs IL-8. Here is the method: Peripheral blood mononuclear cells (PBMCs) from healthy subjects are separated from whole blood using a density gradient (Lymphoprep, Axis-Shield Healthcare). The PBMCs are seeded in 96 well plates and treated with compounds at the desired concentration for 2 hours before addition of 1 ng/mL LPS (Escherichia Coli 0111:B4 from Sigma Aldrich) for 24 hours under normal tissue culture conditions (37° C., 5% CO2). The supernatant is harvested for determination of IL-8 and TNFα concentrations by sandwich ELISA (Duo-set, R&D systems) and read on the fluorescence microplate reader (Varioskan® Flash, ThermoFisher Scientific). The concentration at 50% inhibition (IC50) of IL-8 and TNFα production is calculated from the dose response curve.

For test [2], the target named is GSK3α (Homo sapiens (Human), UniProt P49840). The test can be described thus: GSK 3α enzyme inhibition (Method 2), Z-LYTE FRET. The test is classed as biochemical. The procedure: (§1) The enzyme inhibitory activities of compounds disclosed herein are determined by FRET using synthetic peptides labelled with both donor and acceptor fluorophores (Z-LYTE, Invitrogen Ltd., Paisley, UK).
The inhibitory activities of compounds of the invention against the GSK 3α enzyme isoform (Invitrogen), are evaluated by determining the level of activation/phosphorylation of the target peptide. The GSK3-α protein (500 ng/mL, 2.5 μL) is mixed with the test compound (2.5 μL at either 4 μg/mL, 0.4 μg/mL, 0.04 μg/mL, or 0.004 μg/mL) for 2 hr at RT. The FRET peptide (8 μM, 2.5 μL), which is a phosphorylation target for GSK3α, and ATP (40 μM, 2.5 μL) are then added to the enzyme/compound mixture and the resulting mixture incubated for 1 hr. Development reagent (protease, 5 μL) is added for 1 hr prior to detection in a fluorescence microplate reader (Varioskan® Flash, ThermoFisher Scientific).
(§2) In all cases, the site-specific protease cleaves non-phosphorylated peptide only and eliminates the FRET signal. Phosphorylation levels of each reaction are calculated using the ratio of coumarin emission (donor) over fluorescein emission (acceptor), for which high ratios indicate high phosphorylation and low ratios indicate low phosphorylation levels. The percentage inhibition of each reaction is calculated relative to non-inhibited control and the 50% inhibitory concentration (IC50 value) is then calculated from the concentration-response curve.
This method follows the same steps as Method 1 above, but utilises a shorter period of mixing of the test compound (105 minutes instead of 2 hours) with the GSK3-α protein.

Test [3] concerns PBMCs. Briefly: IL-2 and IFN gamma release in CD3/CD28 stimulated PBMC cells. Conditions: Homo sapiens. Format: cell-based. Here is the method: PBMCs from healthy subjects are separated from whole blood using a density gradient (Lymphoprep, Axis-Shield Healthcare). Cells are added to a 96 well plate pre-coated with a mixture of CD3/CD38 monoclonal antibodies (0.3 μg/mL eBioscience and 3 μg/mL BD Pharmingen respectively). Compound at the desired concentration is then added to the wells and the plate left for 3 days under normal tissue culture conditions. Supernatants are harvested and IL-2 and IFN gamma release determined by Sandwich ELISA (Duo-set, R&D System). The IC50 is determined from the dose response curve.

The target in test [4] is p38 MAPKα (Homo sapiens (Human), UniProt Q16539). The test can be described thus: p38 MAPKα enzyme inhibition (Method 2), Z-LYTE FRET. The test is classed as biochemical. The procedure: as §1
The inhibitory activities of test compounds against the p38 MAPKα isoform (MAPK14: Invitrogen), are evaluated indirectly by determining the level of activation/phosphorylation of the down-stream molecule, MAPKAP-K2. The p38 MAPKα protein (80 ng/mL, 2.5 μL) is mixed with the test compound (2.5 μL of either 4 μg/mL, 0.4 μg/mL, 0.04 μg/mL or 0.004 μg/mL) for 2 hr at RT. […] The mixture is incubated for 1 hr at RT. Development reagent (protease, […]) is added for 1 hr prior to detection in a fluorescence microplate reader (Varioskan® Flash, ThermoFisher Scientific).
This method follows the same steps as Method 1 above, but utilises a higher concentration of the p38 MAPKα protein (2.5 μL of 200 ng/mL protein instead of 2.5 μL of 80 ng/mL protein) for mixing with the test compound.
as §2

Test [5] has as its target c-Src (Homo sapiens (Human), UniProt P12931). The test can be described thus: c-Src enzyme inhibition, Z-LYTE FRET. Format: biochemical. The procedure:
as §1
(§3) The inhibitory activities of compounds of the invention against c-Src and Syk enzymes (Invitrogen), are evaluated in a similar fashion to that described hereinabove. The relevant enzyme (3000 ng/mL or 2000 ng/mL respectively, 2.5 μL) is incubated with the test compound (either 4 μg/mL, 0.4 μg/mL, 0.04 μg/mL, or 0.004 μg/mL, 2.5 μL each) for 2 hr at RT. The FRET peptides (8 μM. 2.5 μL), and appropriate ATP solutions (2.5 μL, 800 μM for c-Src, and 60 μM ATP for Syk) are then added to the enzymes/compound mixtures and incubated for 1 hr. Development reagent (protease, 5 μL) is added for 1 hr prior to detection in a fluorescence microplate reader (Varioskan® Flash, ThermoFisher Scientific).
as §2

The target in test [6] is Syk (Homo sapiens (Human), UniProt P43405). The test can be described thus: Syk enzyme inhibition, Z-LYTE FRET. The test is classed as biochemical. Here is the method: as §1, §3, §2
For test [7], the system named is TNBS-induced colitis in mice. The test can be described thus: TNBS-induced colitis in mice. Further details: Ulcer grade / LP inflammation: scale not given here. Format: in vivo. Conditions: Experiment 1, 2.5 mg/kg oral BID, 2 days. The procedure: On Day 0 of the study TNBS (200 μL) is administered intra-colonically via a plastic catheter followed by BID dosing of the vehicle, reference or test compound for 2 or 4 days. During the study animals are weighed every day and stool observations are made and recorded as a score, based on stool consistency. At the time of sacrifice on Day 2 (or Day 4) the large intestine is removed and the length and weight recorded. Sections of the colon are taken for either MPO analysis to determine neutrophil infiltration or for histopathology involving scoring to determine disease severity.

Where [8] appears, read: IL-2, read-out: IC50 Values for Inhibition of Cytokine Release PBMCs IL-2.

p38 MAPKα, sequence (Q16539 whole entry, canonical isoform): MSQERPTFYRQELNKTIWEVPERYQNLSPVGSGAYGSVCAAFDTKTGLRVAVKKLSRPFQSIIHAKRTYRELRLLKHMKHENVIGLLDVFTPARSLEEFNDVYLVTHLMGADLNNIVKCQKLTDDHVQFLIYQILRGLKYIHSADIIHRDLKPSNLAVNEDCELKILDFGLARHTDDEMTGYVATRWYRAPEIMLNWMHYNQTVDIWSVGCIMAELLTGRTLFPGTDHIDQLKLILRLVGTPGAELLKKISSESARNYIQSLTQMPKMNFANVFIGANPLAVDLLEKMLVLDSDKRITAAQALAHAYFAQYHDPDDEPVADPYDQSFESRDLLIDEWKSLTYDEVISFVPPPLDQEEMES
c-Src, sequence (P12931 whole entry, looked up): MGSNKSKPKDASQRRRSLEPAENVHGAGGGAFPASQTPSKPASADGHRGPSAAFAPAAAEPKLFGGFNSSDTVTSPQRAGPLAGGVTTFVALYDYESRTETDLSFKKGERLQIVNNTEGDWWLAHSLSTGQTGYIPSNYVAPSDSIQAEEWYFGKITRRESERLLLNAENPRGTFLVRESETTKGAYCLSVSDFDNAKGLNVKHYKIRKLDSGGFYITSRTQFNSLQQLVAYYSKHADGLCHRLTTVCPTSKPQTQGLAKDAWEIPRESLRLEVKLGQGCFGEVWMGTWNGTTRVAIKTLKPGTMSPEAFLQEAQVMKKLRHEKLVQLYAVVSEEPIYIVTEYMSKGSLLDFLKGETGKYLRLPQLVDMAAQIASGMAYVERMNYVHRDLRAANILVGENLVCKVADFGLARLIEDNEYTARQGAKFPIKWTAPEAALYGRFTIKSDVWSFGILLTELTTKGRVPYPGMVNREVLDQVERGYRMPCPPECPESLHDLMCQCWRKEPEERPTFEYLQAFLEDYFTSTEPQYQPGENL
GSK3α, sequence (P49840 whole entry, canonical isoform): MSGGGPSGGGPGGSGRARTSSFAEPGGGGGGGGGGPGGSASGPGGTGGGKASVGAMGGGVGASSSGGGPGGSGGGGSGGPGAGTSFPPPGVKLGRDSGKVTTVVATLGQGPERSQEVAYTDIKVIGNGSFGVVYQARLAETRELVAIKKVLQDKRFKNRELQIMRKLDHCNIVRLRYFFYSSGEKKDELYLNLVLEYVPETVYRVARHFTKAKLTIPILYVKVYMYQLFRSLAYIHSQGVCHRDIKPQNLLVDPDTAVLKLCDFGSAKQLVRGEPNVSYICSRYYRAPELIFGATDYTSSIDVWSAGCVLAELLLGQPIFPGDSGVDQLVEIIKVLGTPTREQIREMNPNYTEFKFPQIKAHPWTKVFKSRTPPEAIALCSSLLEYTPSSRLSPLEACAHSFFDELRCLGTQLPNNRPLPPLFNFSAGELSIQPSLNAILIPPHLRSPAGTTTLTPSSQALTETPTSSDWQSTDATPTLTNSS

Consider `C#CC(C)(C)c1cc(NC(=O)Nc2ccc(Oc3ccnc(Nc4cccc(OCCN5CCOCC5)c4)n3)c3ccccc23)n(-c2ccc(C)cc2)n1` [Example 5, 1-(3-(2-Methylbut-3-yn-2-yl)-1-(p-tolyl)-1H-pyrazol-5-yl)-3-(4-((2-((3-(2-morpholinoethoxy)phenyl)amino)pyrimidin-4-yl)oxy)naphthalen-1-yl)urea], for which the half-maximal inhibitory concentration (IC50) came out at 1 nM in test [1] and 602 nM in test [2].

On to `C#CC(C)(C)c1cc(NC(=O)Nc2ccc(Oc3ccnc(Nc4cccc(OCCOCCOCCOC)n4)n3)c3ccccc23)n(-c2ccc(C)cc2)n1` [Example 17, 1-(4-((2-((6-(2-(2-(2-Methoxyethoxy)ethoxy)ethoxy)pyridin-2-yl)amino)pyrimidin-4-yl)oxy)naphthalen-1-yl)-3-(3-(2-methylbut-3-yn-2-yl)-1-(p-tolyl)-1H-pyrazol-5-yl)urea], for which the IC50 in test [1] was 30.4 nM; in test [2], more than 10000 nM.

As for `C#CC(C)(C)c1cc(NC(=O)Nc2ccc(Oc3ccnc(Nc4cc(OCCN(C)C)ccn4)n3)c3ccccc23)n(-c2ccc(C)cc2)n1` [Example 11, 1-(4-((2-((4-(2-(Dimethylamino)ethoxy)pyridin-2-yl)amino)pyrimidin-4-yl)oxy)naphthalen-1-yl)-3-(3-(2-methylbut-3-yn-2-yl)-1-(p-tolyl)-1H-pyrazol-5-yl)urea], the IC50 in test [1] is 10.8 nM; in test [2], more than 10000 nM.

With `C#CC(C)(C)c1cc(NC(=O)Nc2ccc(Oc3ccnc(Nc4cccc(OCCN(C)C)c4)n3)c3ccccc23)n(-c2ccc(C)cc2)n1` [Example 6, 1-(4-((2-((3-(2-(Dimethylamino)ethoxy)phenyl)amino)pyrimidin-4-yl)oxy)naphthalen-1-yl)-3-(3-(2-methylbut-3-yn-2-yl)-1-(p-tolyl)-1H-pyrazol-5-yl)urea], the results for the IC50 in test [1] and in test [2] were 0.6 nM and 243 nM, respectively.

In the case of `C#CC(C)(C)c1cc(NC(=O)Nc2ccc(Oc3ccnc(Nc4cccc(OCCN(C)C)n4)n3)c3ccccc23)n(-c2ccc(C)cc2)n1` [Example 10, 1-(4-((2-((6-(2-(Dimethylamino)ethoxy)pyridin-2-yl)amino)pyrimidin-4-yl)oxy)naphthalen-1-yl)-3-(3-(2-methylbut-3-yn-2-yl)-1-(p-tolyl)-1H-pyrazol-5-yl)urea], the IC50 stood at 1.7 nM in test [1], 7.1 nM in test [3] (setting [8]), 46 nM in test [4] and 1760 nM in test [2].

For the molecule `C#CC(C)(C)c1cc(NC(=O)Nc2ccc(Oc3ccnc(Nc4cccc(OCCN5CCOCC5)n4)n3)c3ccccc23)n(-c2ccc(C)cc2)n1` [Example 16, 1-(3-(2-Methylbut-3-yn-2-yl)-1-(p-tolyl)-1H-pyrazol-5-yl)-3-(4-((2-((6-(2-morpholinoethoxy)pyridin-2-yl)amino)pyrimidin-4-yl)oxy)naphthalen-1-yl)urea], the concentration for half-maximal inhibition (IC50) in test [1] was 17.7 nM; in test [5] it was 21 nM; in test [4] it was 148 nM; in test [6], 348 nM; in test [2], more than 10000 nM.

Consider `C#CC(C)(C)c1cc(NC(=O)Nc2ccc(Oc3ccnc(Nc4cc(OC)cc(C(=O)NCCN5CCOCC5)c4)n3)c3ccccc23)n(-c2ccc(C)cc2)n1` [Example 4, 3-Methoxy-5-((4-((4-(3-(3-(2-methylbut-3-yn-2-yl)-1-(p-tolyl)-1H-pyrazol-5-yl)ureido)-naphthalen-1-yl)oxy)pyrimidin-2-yl)amino)-N-(2-morpholinoethyl)benzamide], for which the IC50 in test [1] was found to be 0.5 nM; in test [2], 539 nM.

For `C#CC(C)(C)c1cc(NC(=O)Nc2ccc(Oc3ccnc(Nc4cc(C)c5[nH]ncc5c4)n3)c(Cl)c2Cl)n(-c2ccc(C)cc2)n1` [Example 9, 1-(2,3-Dichloro-4-((2-((7-methyl-1H-indazol-5-yl)amino)pyrimidin-4-yl)oxy)phenyl)-3-(3-(2-methylbut-3-yn-2-yl)-1-(p-tolyl)-1H-pyrazol-5-yl)urea], the IC50 is 7.6 nM in test [1] and more than 10000 nM in test [2].

On to `C#CC(C)(C)c1cc(NC(=O)Nc2ccc(Oc3ccnc(Nc4ccccc4)c3)c3ccccc23)n(-c2ccc(C)cc2)n1` [Example 7, 1-(3-(2-Methylbut-3-yn-2-yl)-1-(p-tolyl)-1H-pyrazol-5-yl)-3-(4-((2-(phenylamino)pyridin-4-yl)oxy)naphthalen-1-yl)urea], for which the IC50 in test [1] is 4 nM; in test [3] (IFNγ, read-out: IC50 Values for Inhibition of Cytokine Release PBMCs IFNγ) it was 21.8 nM; in test [3] (setting [8]), 139 nM; in test [5], 81 nM; in test [4], 271 nM; in test [6], 185 nM. This molecule also had an IC50 in test [2] of more than 10000 nM.

Turning to `C#CC(C)(C)c1cc(NC(=O)Nc2ccc(Oc3ccnc(Nc4cc(OC)cc(OCCN5CCOCC5)c4)n3)c3ccccc23)n(-c2ccc(C)cc2)n1` [Example 8, 1-(4-((2-((3-Methoxy-5-(2-morpholinoethoxy)phenyl)amino)pyrimidin-4-yl)oxy)-naphthalen-1-yl)-3-(3-(2-methylbut-3-yn-2-yl)-1-(p-tolyl)-1H-pyrazol-5-yl)urea], the IC50 turned out to be 1.4 nM in test [1], 22 nM in test [5], 31 nM in test [6] and 2570 nM in test [2].

As for `CCCC1O[C@@H]2C[C@H]3[C@@H]4CCC5=CC(=O)C=C[C@]5(C)[C@H]4[C@@H](O)C[C@]3(C)[C@]2(C(=O)CO)O1` (stereo partly shown) [Budesonide, reference compound], the LP inflammation in test [7] (TNBS + Vehicle 3.9 ± 0.3) stood at 2.5 ± 0.4. Besides, the Ulcer grade in test [7] (TNBS + Vehicle 4.0 ± 0.5) was 2.9 ± 0.6.
